As usually defined, the pIC50 is the negative decadic logarithm of the IC50, by convention in mol/L. A word on the MIC: it is the lowest concentration that inhibits growth of the organism. As a reminder, the HC50 is the concentration that lyses half of the red blood cells.

pIC50: −log10 of the molar value. Values after ≈ are worked out from the molar mass of the structure shown. Peptide text beside a SMILES is read from it. * marks the point of attachment. Octanoyl = CCCCCCCC(=O)*

Data set [1] can be described thus: Cytotoxicity against human GM5657 cells assessed as inhibition of cell viability after 48 hrs by crystal violet assay. As to conditions: GM5657, 48 h. In kind it is cell-based.
The test system of data set [2] is Staphylococcus aureus. Description: Antibacterial activity against Staphylococcus aureus ATCC 43300 assessed as growth inhibition after 18 hrs. It is filed as functional. The following applies: ATCC 43300, 18 h.
A further data set concerns Acinetobacter baumannii. In words: Antibacterial activity against Acinetobacter baumannii DSM 30007 assessed as growth inhibition after 18 hrs. In kind it is functional. As to conditions: DSM 30007, 18 h.
Data set [3] can be described thus: Selectivity index, ratio of IC50 for human GM5657 cells to IC50 for human HT29 cells. It is filed as functional.
Data set [4] deals with Bacillus subtilis. In words: Bactericidal activity against Bacillus subtilis 168 (trpC2)2 assessed as survival rate at twice MIC concentration incubated for 15 mins measured after 18 hrs. It is filed as functional, subsp. subtilis str. 168 (trpC2)2.
Data set [5] has as its system Bacillus subtilis. Description: Antibacterial activity against Bacillus subtilis 168 DSM 402 assessed as growth inhibition after 18 hrs. In kind it is functional. As to conditions: subsp. subtilis str. 168 DSM 402, 18 h.
For data set [6], the system named is MCF7. In words: Selectivity index, ratio of IC50 for human GM5657 cells to IC50 for human MCF7 cells. It is filed as functional.
For another data set, the system named is Escherichia coli. In words: Antibacterial activity against Escherichia coli DSM 30083 assessed as growth inhibition after 18 hrs. In kind it is functional. The following applies: DSM 30083, 18 h.
The nature of data set [7]: Hemolytic activity against human RBC assessed as hemoglobin leakage at 500 ug/ml after 5 mins. As to conditions: human red blood cells, read-out: Activity. It is filed as ADME, cell-based, Erythrocyte.
The next data set concerns Pseudomonas aeruginosa. In words: Antibacterial activity against Pseudomonas aeruginosa DSM 50071 assessed as growth inhibition after 18 hrs. In kind it is functional. As to conditions: DSM 50071, 18 h.
Data set [8] relates to MCF7. Description: Cytotoxicity against human MCF7 cells assessed as inhibition of cell viability after 48 hrs by crystal violet assay. In kind it is functional, cell-based. As to conditions: MCF7, 48 h.
The next data set has as its system HT-29. In words: Cytotoxicity against human HT-29 cells assessed as inhibition of cell viability after 48 hrs by crystal violet assay. It is filed as functional, cell-based. As to conditions: HT-29, 48 h.
Data set [9] deals with Staphylococcus aureus. Description: Antibacterial activity against Staphylococcus aureus DSM 20231 assessed as growth inhibition after 18 hrs. As to conditions: DSM 20231, 18 h. It is filed as functional.
Data set [10] can be described thus: Hemolytic activity against human RBC assessed as hemoglobin leakage at 250 ug/ml. In kind it is ADME, cell-based, Erythrocyte. As to conditions: human red blood cells, read-out: Activity.
Data set [11] is described as follows: Ratio of IC50 for human GM5657 cells to MIC for Staphylococcus aureus DSM 20231. In kind it is functional.
Data set [12] is described as follows: Hemolytic activity against human RBC assessed as hemoglobin leakage. It is filed as ADME, cell-based, Erythrocyte. The following applies: human red blood cells.

On to `CCCCCCCC(=O)NCCCC[C@H](N)C(=O)N[C@@H](CCCNC(=N)N)C(=O)N[C@@H](Cc1c[nH]c2ccccc12)C(=O)N[C@@H](CCCNC(=N)N)C(=O)N[C@@H](Cc1c[nH]c2ccccc12)C(=O)N[C@@H](CCCNC(=N)N)C(=O)N[C@@H](Cc1c[nH]c2ccccc12)C(N)=O` (H-K(Octanoyl)RWRWRW-NH2), for which the pIC50 in data set [1] was 4.49; in the data set on MCF7 [8], 5.34; in the data set on HT-29, 5.37. The MIC in the data set with Staphylococcus aureus [2] was 1 µM (≈ 1.3 µg/mL); in the data set on Acinetobacter baumannii, 9 µM (≈ 11.7 µg/mL); with Bacillus subtilis [5], 0.6 µM (≈ 0.779 µg/mL); in the data set with Escherichia coli it was 5 µM (≈ 6.49 µg/mL); in the data set with Pseudomonas aeruginosa, 9 µM (≈ 11.7 µg/mL); in the data set on Staphylococcus aureus [9] it was 2 µM (≈ 2.6 µg/mL). Further, the “Ratio IC50” value is 7 in [3], 7 in the data set on MCF7 [6] and 15 in data set [11]. In the data set on Bacillus subtilis [4], the Survival is recorded as 0.006%. Further, the hemolysis at 5 min, 500 ug/ml in data set [7] was determined as 88%. In addition, the hemolysis at 250 ug/ml in data set [10] is more than 50%. Further, the HC50 in data set [12] stood at 114 µM.

As for `CCCCCCCC(=O)NCCCC[C@H](NC(=O)[C@H](Cc1c[nH]c2ccccc12)NC(=O)[C@H](CCCNC(=N)N)NC(=O)[C@H](Cc1c[nH]c2ccccc12)NC(=O)[C@H](CCCNC(=N)N)NC(=O)[C@H](Cc1c[nH]c2ccccc12)NC(=O)[C@@H](N)CCCNC(=N)N)C(N)=O` (H-RWRWRWK(Octanoyl)-NH2), the pIC50 in data set [1] was 4.50; in the data set with MCF7 [8], 5.33; with HT-29, 5.35. Also, the MIC amounted to 2 µM (≈ 2.6 µg/mL) in the data set with Staphylococcus aureus [2]; 5 µM (≈ 6.49 µg/mL) in the data set with Acinetobacter baumannii; 0.6 µM (≈ 0.779 µg/mL) in the data set with Bacillus subtilis [5]; 2 µM (≈ 2.6 µg/mL) with Escherichia coli; 18 µM (≈ 23.4 µg/mL) with Pseudomonas aeruginosa; 2 µM (≈ 2.6 µg/mL) in the data set on Staphylococcus aureus [9]. The entries for the “Ratio IC50” value (in data set [3]; in the data set on MCF7 [6]; in data set [11]) were 7, 7 and 15, respectively. In the data set with Bacillus subtilis [4], the Survival is listed as 0.261%. Further, in data set [7], the hemolysis at 5 min, 500 ug/ml was 48%. The hemolysis at 250 ug/ml in [10] was 10%. For the same compound, the HC50 in [12] is 285 µM.

These data come from ChEMBL document CHEMBL2203177, “Tuning the activity of a short arg-trp antimicrobial Peptide by lipidation of a C- or N-terminal lysine side-chain” (ACS Med Chem Lett, 2012).
